Consider one compound from article PMC7311426, “An amphipathic peptide with antibiotic activity against multidrug-resistant Gram-negative bacteria” (Nature Communications, 2020).

Common to all, as to test: microbe, parasite or virus in culture
The subject of test [1] is A. baumannii clinical isolates. The essentials: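 MIC90 from CLSI broth microdilution (M07-A9) in two clinical-isolate panels. US panel (331 isolates, 2010-2012): AA139 diluted in 0.01% acetic acid/0.1% BSA. Worldwide panel (445 isolates, 2011-2013, four regions): CAMHB, with 0.002% Tween 80 added for AA139 and polymyxin B.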
For another test, the system named is K. pneumoniae. Particulars: Klebsiella pneumoniae, mode of 6 replicates. The essentials:
(§1)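 Broth microdilution in MHB, 2-fold 12-point series from 128 or 64 down to 0.06 or 0.03 μg mL^−1, 5 × 10^5 CFU mL^−1. Extra runs in CAMHB per CLSI and in MHB with 1% agarose; n ≥ 6.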

A further test relates to E. coli. Particulars: Escherichia coli. The essentials: as §1
In another test the test system is S. aureus. The following applies: Staphylococcus aureus, ATCC25923 / MSSA, read-out: BMD MIC. A digest of the protocol: as §1
A further test concerns S. enterica Typhi. The following applies: Salmonella enterica, ATCC14028 / TYPHI, read-out: BMD MIC. The essentials:
as §1

Another test relates to P. aeruginosa. Particulars: Pseudomonas aeruginosa, mode of 6 replicates. The essentials: as §1
The test system of a further test is A. baumannii. The following applies: Acinetobacter baumannii, mode of 6 replicates. A digest of the protocol:
as §1

[2] abbreviates: Worldwide isolates 2011-2013, A. baumannii n = 108.

Structures are written as SMILES. Values after ≈ are worked out from the molar mass of the structure shown. Like-named read-outs stand apart in the source and are kept apart here.

For `CNC(C)C1CCC(N)C(OC2C(N)CC(N)C(OC3OCC(C)(O)C(NC)C3O)C2O)O1` (stereo not shown) [Gentamicin, gentamicin, reference compound], the MIC90 in test [1] (Acinetobacter baumannii) is above 32 µg/mL; in test [1] (US isolates 2010–2012, A. baumannii MDR, n = 19), above 32 µg/mL; in test [1] (US isolates 2010–2012, A. baumannii XDR, n = 31), above 32 µg/mL; in test [1] (setting [2]) it was above 32 µg/mL. Further, the MIC50 in test [1] (setting [2]) is above 32 µg/mL. Moreover, the MIC is 0.5 µg/mL (≈ 1.05 µM) in the test with K. pneumoniae (ATCC13883, read-out: BMD MIC, K. pneumoniae ATCC 13883 type strain (polymyxin/colistin heteroresistant), MHB); 4 µg/mL (≈ 8.38 µM) in the test on K. pneumoniae (ATCC700603, read-out: BMD MIC, K. pneumoniae ATCC 700603 (K6), MDR, OXA-2/SHV-18, CAMHB); 4 µg/mL (≈ 8.38 µM) in the test on K. pneumoniae (ATCC700603, read-out: BMD MIC, K. pneumoniae ATCC 700603 (K6), MDR, OXA-2/SHV-18, MHB); above 32 µg/mL in the test on K. pneumoniae (BAA2146, read-out: BMD MIC, K. pneumoniae BAA-2146, MDR, ESBL, NDM-1 pos, MHB); at most 0.25 µg/mL in the test on E. coli (ATCC25922, read-out: BMD MIC, E. coli ATCC 25922 FDA control strain, CAMHB, mode of 6 replicates); 1 µg/mL (≈ 2.09 µM) in the test with E. coli (ATCC25922, read-out: BMD MIC, E. coli ATCC 25922 FDA control strain, MHB, mode of 6 independent biological replicates). The MIC in the test on E. coli (ATCC700926|MG1655, read-out: BMD MIC, E. coli ATCC 700926 K12 (MG1655), CAMHB, mode of 6 replicates) amounted to 0.5 µg/mL (≈ 1.05 µM); in the test with E. coli (ATCC700928, read-out: BMD MIC, E. coli ATCC 700928 CFT073 UPEC, CAMHB, mode of 6 replicates) it was 0.5 µg/mL (≈ 1.05 µM); in the test with E. coli (read-out: BMD MIC, E. coli CI 12-6-83 Hong Kong, mcr-1 pos, ESBL, CAMHB, mode of 6 replicates), 0.5 µg/mL (≈ 1.05 µM); in the test on S. aureus, 4 µg/mL (≈ 8.38 µM); in the test on S. enterica Typhi, 1 µg/mL (≈ 2.09 µM); in the test with P. aeruginosa (ATCC27853, read-out: BMD MIC, P. aeruginosa ATCC 27853 control strain, CAMHB) it was 1 µg/mL (≈ 2.09 µM). Moreover, the MIC in the test on P. aeruginosa (ATCC27853, read-out: BMD MIC, P. aeruginosa ATCC 27853 control strain, MHB) was 1 µg/mL (≈ 2.09 µM); in the test on P. aeruginosa (read-out: BMD MIC, P. aeruginosa FADDI-070, MDR, PmxR, MHB/CAMHB), 32 µg/mL (≈ 67 µM); in the test on A. baumannii (ATCC19636, read-out: BMD MIC, A. baumannii ATCC 19636 type strain, CAMHB), 16 µg/mL (≈ 33.5 µM); in the test on A. baumannii (ATCC19636, read-out: BMD MIC, A. baumannii ATCC 19636 type strain, MHB), 32 µg/mL (≈ 67 µM); with A. baumannii (read-out: BMD MIC, A. baumannii Greece CI, XDR, PmxR, MHB) it was above 32 µg/mL.
